This test concerns the target T1, Myriococcum thermophilum cellobiose dehydrogenase (CDH), recombinant wild type, SEQ ID NO: 1 (Thermothelomyces myriococcoides, UniProt A9XK88).
T1 sequence (A9XK88 22-828): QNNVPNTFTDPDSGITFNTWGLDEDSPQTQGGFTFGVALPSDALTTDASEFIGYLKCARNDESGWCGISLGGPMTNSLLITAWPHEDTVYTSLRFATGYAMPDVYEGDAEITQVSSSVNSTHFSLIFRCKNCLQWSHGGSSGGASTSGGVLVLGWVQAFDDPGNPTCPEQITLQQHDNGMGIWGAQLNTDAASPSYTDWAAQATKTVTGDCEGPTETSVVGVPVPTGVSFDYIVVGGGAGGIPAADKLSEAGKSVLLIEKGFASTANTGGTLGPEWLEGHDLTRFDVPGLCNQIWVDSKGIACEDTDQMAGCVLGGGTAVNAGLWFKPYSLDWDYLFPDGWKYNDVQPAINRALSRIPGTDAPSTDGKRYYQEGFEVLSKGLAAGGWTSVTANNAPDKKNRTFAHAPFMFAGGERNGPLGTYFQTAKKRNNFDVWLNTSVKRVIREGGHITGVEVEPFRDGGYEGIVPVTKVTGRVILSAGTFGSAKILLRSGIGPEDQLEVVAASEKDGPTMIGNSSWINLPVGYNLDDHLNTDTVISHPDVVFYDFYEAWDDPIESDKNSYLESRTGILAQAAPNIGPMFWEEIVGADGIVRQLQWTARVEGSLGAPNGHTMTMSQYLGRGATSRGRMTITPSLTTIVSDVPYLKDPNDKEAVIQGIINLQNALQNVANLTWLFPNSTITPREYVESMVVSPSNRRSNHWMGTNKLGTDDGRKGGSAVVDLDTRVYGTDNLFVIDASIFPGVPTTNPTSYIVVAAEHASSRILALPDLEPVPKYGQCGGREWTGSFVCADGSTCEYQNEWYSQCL
Put plainly: Steady-state kinetics, DCIP assay: M. thermophilum CDH wt. It counts as biochemical. The conditions noted are these: apparent, pH 4.5, 30° C. As to the method:
Enzyme activity was assayed at 30° C. using either the DCIP (Karapetyan et al., 2005 Journal of Biotechnology 121: 34-48) or cytochrome c (Canevascini et al., 1991, European Journal of Biochemistry 198: 43-52) as electron acceptor. […] Stock solutions of carbohydrates used for kinetic measurements were prepared in the respective buffer and allowed to stand overnight for mutarotation, while stock solutions of electron acceptors were prepared in water and immediately used. The reaction stoichiometry is 1 for the two-electron acceptor DCIP (1 mole of DCIP reduced per mole of carbohydrate oxidized), but 2 for the one-electron acceptor cytochrome c. Kinetic constants were calculated by fitting the observed data to the Henri-Michaelis-Menten equation or to the adapted model for substrate inhibition using nonlinear least-squares regression and the program SigmaPlot (Systat Software, San Jose, Calif., USA). […]
Recombinant wild-type CDH as well as variants were produced in 1 L baffled flasks. […] Increase in activity was monitored using the DCIP and the cytochrome c enzyme assays. […]
The sample was loaded on a 20 mL PHE Sepharose FF column (HR26/20) equilibrated with 50 mM Na-acetate buffer pH 5.5 containing 20% ammonium sulfate. […] Fractions were tested for CDH activity and pooled according to the highest Reinheitszahl (RZ, calculated from the absorbance ratio 420 nm/280 nm). […]

The term kcat denotes the maximal rate divided by the concentration of active sites. The term kcat/KM denotes the turnover number divided by the Michaelis constant. As for `OC[C@H]1OC(O)[C@H](O)[C@@H](O)[C@@H]1O` (some centres unmarked) [Glucose, glucose], the catalytic constant (kcat) was 4.8 s⁻¹ and the specificity constant (kcat/KM) came out at 12 M⁻¹ s⁻¹.
